Measured values published in article PMC5108032, “Discovery of a Quinoline-4-carboxamide Derivative with a Novel Mechanism of Action, Multistage Antimalarial Activity, and Potent in Vivo Efficacy” (Journal of Medicinal Chemistry, 2016).
≈ marks a conversion by molar mass, not a printed value.

Legend:
[1] = Experimental pKa by potentiometric titration; format: physicochemical; conditions: value in parentheses, read-out: R^3 group pKa, experimental
Source text: Table 4 SAR Study of the R^3 Substituent: Aromatic Groups | column: R^3 group pKa^a

[2] = Plasma protein binding (equilibrium dialysis); format: in vitro ADME; conditions: female, NMRI; mouse plasma protein binding; read-out: PPB (converted)
Method: by the addition of excess NADPH (8 mg/mL 50 mM potassium phosphate buffer, pH 7.4).
Immediately, at time zero, then at 3, 6, 9, 15 and 30 min an aliquot (50 μL) of the incubation mixture was removed and mixed with acetonitrile (100 μL) to stop the reaction. Internal standard was added to all samples, the samples centrifuged to sediment precipitated protein and the plates then sealed prior to UPLC-MS/MS analysis using a Quattro Premier XE (Waters Corporation, USA).
XLfit (IDBS, UK) was used to calculate the exponential decay and consequently the rate constant (k) from the ratio of peak area of test compound to internal standard at each timepoint. The rate of intrinsic clearance (CLi) of each test compound was then calculated using the following calculation:
CLi (mL/min/g liver) = k x V x Microsomal protein yield
Where V (mL/mg protein) is the incubation volume/mg protein added and microsomal protein yield is taken as 52.5 mg protein per g liver. Verapamil (0.5 µM) was used as a positive control to confirm acceptable assay performance. Experiments were performed using a single time-course experiment.
Plasma Protein Binding (PPB) experiments
This was based on a previously described method, with the exception that NMRI mouse plasma was used here.8 In brief, a 96 well equilibrium dialysis apparatus was used to determine the free fraction in plasma for each compound (HT Dialysis LLC, Gales Ferry, CT). Membranes (12-14 kDA cut-off) were conditioned in deionised water for 60 min, followed by conditioning in 80:20 deionised water:ethanol for 20 min, and then rinsed in isotonic buffer before use. Female CD1 mouse plasma was removed from the freezer and allowed to thaw on the day of experiment. Thawed plasma was then centrifuged (Allegra X12-R, Beckman Coulter, USA), spiked with test compound (final concentration 10 μg/mL), and 150 μL aliquots (n=6 replicate determinations) loaded into the 96-well equilibrium dialysis plate. Dialysis against isotonic buffer (150 µL) was carried out for 5 h in a temperature controlled incubator at ~37 °C (Barworld scientific Ltd, UK) using an orbital microplate shaker at 100 revolutions/minute (Barworld Scientific Ltd, UK). At the end of the incubation period, 50 μL aliquots of plasma or buffer were transferred to micronic tubes (Micronic B.V., the Netherlands) and the composition in each tube balanced with control fluid (50 μL), such that the volume of buffer to plasma is the same. Sample extraction was performed by the addition of 200 µL of acetonitrile containing an appropriate internal standard. Samples were allowed to mix for 1 min and then centrifuged at 3000 rpm in 96-well blocks for 15 min (Allegra X12-R, Beckman Coulter, USA) after which 150 μL of supernatant was removed to 50 μL of water. All samples were analysed by UPLC-MS/MS on a Quattro Premier XE Mass Spectrometer (Waters Corporation, USA). The unbound fraction was determined as the ratio of the peak area in buffer to that in plasma. Experiments […]
Parallel Artificial Membrane Permeability Assay (PAMPA)
PAMPA was performed using a 96-well pre-coated BD Gentest™ PAMPA plate (BD Biosciences, U.K.). Each well was divided into two chambers; donor and acceptor, separated by a lipid-oil-lipid tri-layer constructed in a porous filter. The effective permeability, Pe, of the compound was measured at pH 7.4. Stock solutions (5 mM) of the compound were prepared in DMSO. The compound was then further diluted to 10 µM in phosphate buffered saline at pH 7.4. […]

[3] = Kinetic aqueous solubility (laser nephelometry); format: physicochemical; conditions: MilliQ water with 1.0% DMSO, aqueous with cosolvent or surfactant or cyclodextrin, kinetic from dmso stock
Source text: inhibition at top, C= EC50, D= slope, x= inhibitor concentration and y= % inhibition. […]
reach 100% of inhibition, B was fixed to 100 only when at least 50% of inhibition was reached.
Plasmodium falciparum late stage (IV-V) gametocyte high content imaging assay Plasmodium falciparum NF54-pfs16-LUC-GFP stage IV-V Gametocytes were produced as described previously.5 Compounds were solubilized in DMSO and serially diluted in three concentrations per log standard curves in DM SO. One µl of compound was subsequently diluted in 25µl of water (4% DMSO) and 5µl transferred into the base of 384 well PerkinElmer CellCarrier plates. […]
Post incubation, 5µl of MitoTracker® Red CM -H2Xros (MTR) solution (0.66ug/ml) was added to all wells and the plates incubated for a further 16hours. The assay plates were then imaged and the number of viable gametocytes determined for test compounds plus 0.4%DMSO and 5µM Puromycin. […]
Assay was performed as previously reported.6 Briefly blood containing P. berghei CTRPp-GFP gametocytes was rapidly harvested from infected mice and introduced to test compounds pre-diluted in ookinete medium (to induce gamete formation and support ookinete development) in 96-well plates. […] All assays were performed in triplicate independent experiments and EC50 values calculated in Graphpad Prism. […]

[4] = test system: Pf (3D7); assay: Ligand efficiency metrics (LE, LLE, LELP), selectivity and fold changes; design: species or system Plasmodium falciparum
[5] = Rat hepatic portal vein study; format: in vivo

| SMILES | pKa [1] | fraction unbound at 5 h, 10 μg/mL [2] | LLE (ligand-lipophilicity efficiency) [4] | further results |
| --- | --- | --- | --- | --- |
| O=C(NCCN1CCCC1)c1cc(-c2ccc(CN3CCOCC3)cc2Cl)nc2ccc(F)cc12 [Compound 42, 2-(2-Chloro-4-(morpholinomethyl)phenyl)-6-fluoro-N-(2-(pyrrolidin-1-yl)ethyl)quinoline-4-carboxamide] | 6.3 | 0.44 |  |  |
| O=C(NCCN1CCCC1)c1cc(NCCCCN2CCOCC2)nc2ccc(Cl)cc12 [Compound 27, 6-Chloro-2-((4-morpholinobutyl)amino)-N-(2-(pyrrolidin-1-yl)ethyl)quinoline-4-carboxamide] |  | 0.51 | 6.2 | solubility kinetic [3]: 220 µM (≈ 101 µg/mL); improvement / increase in potency ([4]; Pf (3D7), relative to the comparator compound of the sentence): 17 fold |
| O=C(NCCN1CCCC1)c1cc(-c2ccc(CN3CCOCC3)cc2F)nc2ccc(F)cc12 [Compound 41] | 6.3 |  |  |  |
| O=C(NCCN1CCCC1)c1cc(NCCC2CCOCC2)nc2ccc(Cl)cc12 [Compound 30, 6-Chloro-N-(2-(pyrrolidin-1-yl)ethyl)-2-((2-(tetrahydro-2H-pyran-4-yl)ethyl)amino)quinoline-4-carboxamide] |  | 0.23 |  | hepatic extraction [5]: 76% |
| O=C(NCCN1CCCC1)c1cc(-c2ccc(S(=O)(=O)N3CCOCC3)cc2)nc2ccc(F)cc12 [Compound 38, 6-Fluoro-2-(4-(morpholinosulfonyl)phenyl)-N-(2-(pyrrolidin-1-yl)ethyl)quinoline-4-carboxamide] |  | 0.25 |  |  |
| O=C(NCCN1CCCC1)c1cc(NCCCN2CCOCC2)nc2ccc(F)cc12 [Compound 25, 6-Fluoro-2-((3-morpholinopropyl)amino)-N-(2-(pyrrolidin-1-yl)ethyl)quinoline-4-carboxamide] |  | 0.41 | 5.4 |  |
